According to PubChem BioAssay AID330 (DTP/NCI, 2004):
Values joined by “and” are separate entries in the source; they are usually repeats but may differ in a detail not shown here. Equal values may be shown once. Inconclusive results and toxic doses are left out. The calls were made as follows: active = survival T/C of 150% or more; inactive = T/C below 125% in these data. Peptide text beside a SMILES is read from it.

Tested on: P388 leukemia ip, CD2F1 mice, survival T/C
Assay: NCI In Vivo Anticancer Drug Screen. Data for tumor model P388 Leukemia (intraperitoneal) in CD2F1 (CDF1) mice
Details: endpoint: median survival time, higher = longer survival
How it was run: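 Mice carrying the transplanted tumor received test compound or vehicle. Survival was recorded in each group, and the value is the treated-group measurement divided by that of the vehicle-treated control group.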

[1] = dose: 60.0 mg/kg/injection, schedule: Q01DX005 (ip), vehicle: saline with Tween-80
[2] = dose: 120.0 mg/kg/injection, schedule: Q01DX005 (ip), vehicle: saline with Tween-80
[3] = dose: 240.0 mg/kg/injection, schedule: Q01DX005 (ip), vehicle: saline with Tween-80
[4] = dose: 100.0 mg/kg/injection, schedule: Q01DX001 (ip), vehicle: Klucel (hydroxypropylcellulose) (HPC)
[5] = dose: 200.0 mg/kg/injection, schedule: Q01DX001 (ip), vehicle: Klucel (hydroxypropylcellulose) (HPC)
[6] = dose: 100.0 mg/kg/injection, schedule: Q04DX003 (ip), vehicle: saline with Tween-80
[7] = dose: 12.5 mg/kg/injection, schedule: Q01DX009 (ip), vehicle: saline with Tween-80
[8] = dose: 25.0 mg/kg/injection, schedule: Q01DX009 (ip), vehicle: saline with Tween-80
[9] = dose: 50.0 mg/kg/injection, schedule: Q01DX009 (ip), vehicle: saline with Tween-80
[10] = dose: 100.0 mg/kg/injection, schedule: Q04DX003 (ip), vehicle: Klucel (hydroxypropylcellulose) (HPC)
[11] = dose: 400.0 mg/kg/injection, schedule: Q04DX003 (ip), vehicle: Klucel (hydroxypropylcellulose) (HPC)
[12] = dose: 50.0 mg/kg/injection, schedule: Q01DX005 (ip), vehicle: saline
[13] = dose: 100.0 mg/kg/injection, schedule: Q01DX005 (ip), vehicle: saline

Measured: T/C

Cc1oc(C)c2c1C(=O)N(C)C2=O
inactive: [1] 100 % of control | [2] 100 % of control | [3] 103 % of control

O=[N+]([O-])c1ccc(/C=N/NC(=S)NC23CC4CC(CC(C4)C2)C3)o1
inactive: dose: 50.0 mg/kg/injection, schedule: Q01DX005 (ip), vehicle: Klucel (hydroxypropylcellulose) (HPC) 92 % of control | dose: 100.0 mg/kg/injection, schedule: Q01DX005 (ip), vehicle: Klucel (hydroxypropylcellulose) (HPC) 103 % of control | dose: 200.0 mg/kg/injection, schedule: Q01DX005 (ip), vehicle: Klucel (hydroxypropylcellulose) (HPC) 94 % of control

Cc1c2ccn(Cc3ccccc3)cc2c(C)c2c1nc1ccccc12
inactive: dose: 19.25 mg/kg/injection, schedule: Q04DX002 (ip), vehicle: saline with Tween-80 121 % of control | dose: 38.5 mg/kg/injection, schedule: Q04DX002 (ip), vehicle: saline with Tween-80 113 % of control

CN(C)c1ccc(/C=N/NC(=O)CNC(=O)n2ccnc2)cc1
inactive: dose: 50.0 mg/kg/injection, schedule: Q01DX005 (ip), vehicle: saline with Tween-80 99 % of control | dose: 100.0 mg/kg/injection, schedule: Q01DX005 (ip), vehicle: saline with Tween-80 94 % of control | dose: 200.0 mg/kg/injection, schedule: Q01DX005 (ip), vehicle: saline with Tween-80 94 % of control

Cc1c(C(N)=O)no[n+]1[O-]
inactive: dose: 30.0 mg/kg/injection, schedule: Q01DX005 (ip), vehicle: saline 100 % of control | dose: 60.0 mg/kg/injection, schedule: Q01DX005 (ip), vehicle: saline 99 % of control and 100 % of control | dose: 120.0 mg/kg/injection, schedule: Q01DX005 (ip), vehicle: saline 99 % of control and 100 % of control

COC1=CC(=O)C(C#CCOCc2ccccc2)=CC1=O
inactive: dose: 7.5 mg/kg/injection, schedule: Q01DX005 (ip), vehicle: Klucel (hydroxypropylcellulose) (HPC) 100 % of control | dose: 15.0 mg/kg/injection, schedule: Q01DX005 (ip), vehicle: Klucel (hydroxypropylcellulose) (HPC) 102 % of control | dose: 30.0 mg/kg/injection, schedule: Q01DX005 (ip), vehicle: Klucel (hydroxypropylcellulose) (HPC) 105 % of control

COC1(OC)OC(c2ccc([N+](=O)[O-])cc2)=C(c2ccc([N+](=O)[O-])cc2)OC1(OC)OC
inactive: dose: 60.0 mg/kg/injection, schedule: Q01DX005 (ip), vehicle: Klucel (hydroxypropylcellulose) (HPC) 90 % of control | dose: 120.0 mg/kg/injection, schedule: Q01DX005 (ip), vehicle: Klucel (hydroxypropylcellulose) (HPC) 87 % of control

O=c1[nH]c(=O)c2c(Br)[nH]nc2[nH]1
inactive: [4] 110 % of control | [5] 103 % of control

CC1(C)COC(=O)C1=C(C#N)C#N
inactive: dose: 25.0 mg/kg/injection, schedule: Q04DX003 (ip), vehicle: saline 100 % of control | dose: 50.0 mg/kg/injection, schedule: Q04DX003 (ip), vehicle: saline 98 % of control | dose: 100.0 mg/kg/injection, schedule: Q04DX003 (ip), vehicle: saline 102 % of control

c1ccc(NC2=NCCO2)nc1
inactive: dose: 50.0 mg/kg/injection, schedule: Q04DX003 (ip), vehicle: saline with Tween-80 100 % of control | [6] 95 % of control | dose: 200.0 mg/kg/injection, schedule: Q04DX003 (ip), vehicle: saline with Tween-80 100 % of control

Nc1nnn(/N=C\C=N/n2nnc(N)n2)n1
inactive: [4] 94 % of control | [5] 102 % of control | dose: 400.0 mg/kg/injection, schedule: Q01DX001 (ip), vehicle: Klucel (hydroxypropylcellulose) (HPC) 105 % of control

N#Cc1nccnc1C#N
inactive: [7] 86 % of control | [8] 105 % of control | dose: 50.0 mg/kg/injection, schedule: Q01DX009 (ip), vehicle: Klucel (hydroxypropylcellulose) (HPC) 102 % of control | [9] 101 % of control

N#Cc1cccn1OCN1C(=O)c2ccccc2C1=O
inactive: dose: 25.0 mg/kg/injection, schedule: Q04DX003 (ip), vehicle: Klucel (hydroxypropylcellulose) (HPC) 100 % of control | dose: 50.0 mg/kg/injection, schedule: Q04DX003 (ip), vehicle: Klucel (hydroxypropylcellulose) (HPC) 103 % of control | [10] 100 % of control and 92 % of control | [11] 87 % of control

COC(=O)C(c1c(O)cc(C)oc1=O)C(C(=O)OC)c1c(O)cc(C)oc1=O (stereo not given)
inactive: [10] 96 % of control | dose: 200.0 mg/kg/injection, schedule: Q04DX003 (ip), vehicle: Klucel (hydroxypropylcellulose) (HPC) 95 % of control | [11] 96 % of control

O=c1oc2c(c(N(c3ccccc3)c3ccccc3)c1Cl)CSc1ccccc1-2
inactive: [6] 90 % of control

Cc1ccc(NC(=O)C(F)(F)F)cc1
inactive: [9] 113 % of control | dose: 100.0 mg/kg/injection, schedule: Q01DX009 (ip), vehicle: saline with Tween-80 108 % of control | dose: 200.0 mg/kg/injection, schedule: Q01DX009 (ip), vehicle: saline with Tween-80 108 % of control

CC1CCC2N(C1)CC1C3(O)CC45OC6(O)C(O)CCC4(C)C6CCC5C3(O)CC(O)C1(O)C2(C)O (stereo not given)
inactive: dose: 3.12 mg/kg/injection, schedule: Q01DX009 (ip), vehicle: saline with Tween-80 103 % of control | dose: 6.25 mg/kg/injection, schedule: Q01DX009 (ip), vehicle: saline with Tween-80 112 % of control | [7] 98 % of control | dose: 25.0 mg/kg/injection, schedule: Q01DX005 (ip), vehicle: saline 114 % of control | [8] 103 % of control | [12] 109 % of control | [9] 98 % of control | [13] 107 % of control

COc1ccc(C(C#N)C(=O)C(=O)Nc2ccc(Cl)cc2C)cc1OC (stereo not given)
inactive: [1] 100 % of control | [2] 100 % of control | [3] 105 % of control

C/C(=N\N=C(\N)N1CCOCC1)c1ccc2c(c1)Cc1ccccc1-2
inactive: dose: 100.0 mg/kg/injection, schedule: Q04DX002 (ip), vehicle: saline with Tween-80 101 % of control

NCCCCC(NC(=O)C(N)Cc1cnc[nH]1)C(=O)O (stereo not drawn) (H-His-Lys-OH; configuration not given here)
inactive: [12] 99 % of control | [13] 108 % of control | dose: 200.0 mg/kg/injection, schedule: Q01DX005 (ip), vehicle: saline 100 % of control

CC(C)C(=O)CCCN1C(=O)c2ccccc2C1=O
inactive: dose: 12.5 mg/kg/injection, schedule: Q01DX009 (ip), vehicle: distilled water + Tween-80 94 % of control | dose: 25.0 mg/kg/injection, schedule: Q01DX009 (ip), vehicle: distilled water + Tween-80 86 % of control | dose: 50.0 mg/kg/injection, schedule: Q01DX009 (ip), vehicle: distilled water + Tween-80 86 % of control | dose: 100.0 mg/kg/injection, schedule: Q01DX009 (ip), vehicle: distilled water + Tween-80 100 % of control

O=[N+]([O-])c1c(Cl)nc(-c2ccccc2)nc1Cl
inactive: dose: 6.25 mg/kg/injection, schedule: Q01DX005 (ip), vehicle: Klucel (hydroxypropylcellulose) (HPC) 101 % of control | dose: 12.5 mg/kg/injection, schedule: Q01DX005 (ip), vehicle: Klucel (hydroxypropylcellulose) (HPC) 93 % of control | dose: 25.0 mg/kg/injection, schedule: Q01DX005 (ip), vehicle: Klucel (hydroxypropylcellulose) (HPC) 100 % of control

C=CCC(C)/C(=N\[N+](C)(C)C)c1ccccc1 (stereo not given)
inactive: dose: 12.5 mg/kg/injection, schedule: Q01DX001 (ip), vehicle: saline 100 % of control | dose: 25.0 mg/kg/injection, schedule: Q01DX001 (ip), vehicle: saline 106 % of control | dose: 50.0 mg/kg/injection, schedule: Q01DX001 (ip), vehicle: saline 99 % of control
